Structures can show the parent of a compound that is named as a salt.

For the experiment, the system named is von Bezold-Jarisch reflex evoked by 5-HT. Description: Antagonism of the von Bezold-Jarisch reflex evoked by 5-HT in the anesthetized rat. Type of experiment: in vivo. The following applies: iv, urethane-anesthetized male rats, submaximal 5-HT (usually 6 μg/kg i.v.), heart rate changes, read-out: ED50 (dose required to reduce the 5-HT-evoked response to 50% of the control response). The method, then: Antagonism of the von Bezold-Jarisch reflex
The compounds were evaluated for antagonism of the von Bezold-Jarisch reflex evoked by 5-HT in the anesthetized rat according to the following method
Male rats 250-350 g, were anesthetized with urethane (1.25 g/kg intraperitoneally) and blood pressure and heart rate recorded as described by Fozard J. R. et al., J. Cardiovasc Pharmacol 2, 229-245 (1980). A submaximal dose of 5-HT (usually 6 μg/kg) was given repeatedly by the intravenous route and changes in heart rate quantified Compounds were given intravenously and the concentration required to reduce the 5-HT-evoked response to 50% of the control response (ED50) was then determined.
One may read the ED50 as the midpoint of the dose-response relation. As for `CCc1cc(C(=O)NC2CC3CCC(C2)N3C)c2ccccn12` (stereo not drawn) [Compound 2, (endo)-N-(8-Methyl-8-azabicyclo[3.2.1]oct-3-yl)-3-ethylindolizin-1-carboxamide], the ED50 was 0.24 µg/kg.
On to `CCc1nc(C(=O)NC2CC3CCCC(C2)N3C)c2ccccn12` (centres unmarked) [Compound 8], for which the median effective dose (ED50) worked out at 0.5 µg/kg.
The figure for `CCc1nc(C(=O)NC2CC3CCC(C2)N3C)c2ccccn12` (stereo not drawn) [Compound 9, (endo)-N-(8-Methyl-8-azabicyclo[3,2,1]oct-3-yl)-3ethylimidazo[1,5-a]plyridin-1-carboxamide] is 1 µg/kg; for `CN1C2CCC1CC(NC(=O)C1=CC(C)(C)c3ccccc31)C2` (stereo not drawn) [Compound 13, (endo)-N-(8-Methyl-8-azabicyclo[3.2.11]octan-3-yl)-3,3-dimethylindene-1-carboxamide monohydrochloride] it is 1.1 µg/kg; for `CN1C2CCC1CC(NC(=O)c1ccc3cccccc1-3)C2` (stereo not drawn) [Compound 17, (endo)-N-(8-Methyl-8-azabicyclo[3.2.1]octan-3-yl)azulene-1-carboxamide] it is 13 µg/kg.

The values above are taken from patent publication US4882327A, “Certain heterocyclic N-substituted carboxamides” (Beecham Group p.l.c., priority 1987, dated 1989).
